Experimental data from patent US11834440B2, “Beta-lactam derivatives for the treatment of diseases” (Insilico Medicine IP Limited, priority 2021, dated 2023).

These compounds were tested against QPCTL (Homo sapiens (Human), UniProt Q9NXS2) (assay: QPCTL inhibition, SensoLyte Green Glutaminyl Cyclase Activity Assay). Settings: 0.8 nM 2x enzyme solution, 45 min at 37° C., 50 mM Tris pH 8.0, 1% DMSO.
Assay type: biochemical
Procedure: Preparation of working solution: 2×Glutaminyl Cyclase substrate was diluted in assay buffer to […]. 2×enzyme solution and QPCTL was diluted in assay buffer to 0.8 nM. Glutaminyl Cyclase Developer was diluted in assay buffer to 1×(containing 10 mM 1-Benzyl-Imidazole). Serial dilution of test compounds was performed in DMSO. The final DMSO concentration in 100 μl reaction was 1%. The assay buffer was 50 mM Tris, pH 8.0, 0.01% BSA.
Procedure: 50 μL of 2×Glutaminyl Cyclase substrate solution was added into the assay plate followed by 50 μL of 2×enzyme solution. The plate was centrifuged for 1 min at 1000 rmp. Next the plate was incubated for 45 minutes at 37° C. This was followed by the additional of 50 μL of the prepared Glutaminyl Cyclase developer and incubated for additional 30 min at 37° C. Results were read on SpectraMax Paradigm detecting with emission at Ex/Em=490 nm/520 nm.
A Z′ value was calculated for each assay plate. The Z′ value must be >0.5 or the plate was disqualified. […] Results were calculated using GraphPad Prism 7 software is used for IC50 determination.

Sequence of QPCTL (Q9NXS2 whole entry, species assumed): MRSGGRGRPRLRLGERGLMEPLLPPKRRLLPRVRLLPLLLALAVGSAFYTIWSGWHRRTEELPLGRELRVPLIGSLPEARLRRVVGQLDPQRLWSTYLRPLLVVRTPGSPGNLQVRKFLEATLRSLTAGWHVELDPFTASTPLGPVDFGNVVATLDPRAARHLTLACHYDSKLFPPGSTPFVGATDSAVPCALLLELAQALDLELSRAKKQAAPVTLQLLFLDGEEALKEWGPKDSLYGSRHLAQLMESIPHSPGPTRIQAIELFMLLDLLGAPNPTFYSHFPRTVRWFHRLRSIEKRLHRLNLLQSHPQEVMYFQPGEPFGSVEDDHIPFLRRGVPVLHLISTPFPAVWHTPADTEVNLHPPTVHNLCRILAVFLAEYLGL

Row | Structure (SMILES) | IC50 [nM]
1 | O=C1[C@@H](C2CC2)[C@@H](c2ccc(-c3cnn(C(F)(F)F)c3)cn2)N1c1ccc2[nH]cnc2c1 (single isomer, unassigned) [Compound 46A] | 25 to 1000
2 | Cn1cc(-c2cc(F)c([C@H]3[C@@H](O)C(=O)N3c3ccc4[nH]cnc4c3)c(F)c2)cn1 (single isomer, unassigned) [Compound 15B] | < 2
3 | O=C1[C@H](C2CC2)[C@H](c2ccc(-c3cnn(C(F)(F)F)c3)cc2C(F)(F)F)N1c1ccc2[nH]cnc2c1 (single isomer, unassigned) [Compound 76B] | > 1000
4 | O=C1[C@H](C2CC2)[C@H](c2c(F)cc(-c3cnn(C(F)(F)F)c3)cc2F)N1c1ccc2[nH]cnc2c1 (single isomer, unassigned) [Compound 35B] | < 2
5 | O=C1C(O)C(c2c(F)cc(OCCC(F)F)cc2F)N1c1ccc2[nH]cnc2c1 (racemic) [Compound 8, (cis and racemic)-1-(1H-benzo[d]imidazol-5-yl)-4-(4-(3,3-difluoropropoxy)-2,6-difluorophenyl)-3-hydroxyazetidin-2-one] | 2 to 25
6 | CC1(C)C(=O)N(c2ccc3[nH]cnc3c2)C1c1c(F)cc(OCCC(F)F)cc1F (racemic) [Compound 2, 1-(1H-benzo[d]imidazol-5-yl)-4-(4-(3,3-difluoropropoxy)-2,6-difluorophenyl)-3,3-dimethylazetidin-2-one] | > 1000
7 | Cc1cc(-n2cnc(C(F)(F)F)c2)ccc1[C@H]1[C@@H](C2CC2)C(=O)N1c1ccc2[nH]cnc2c1 (single isomer, unassigned) [Compound 74B] | < 2
8 | O=C1N(c2ccc3[nH]cnc3c2)C(c2c(F)cc(OCCC(F)F)cc2F)C12CCC2 (racemic) [Compound 3, 2-(1H-benzo[d]imidazol-5-yl)-3-(4-(3,3-difluoropropoxy)-2,6-difluorophenyl)-2-azaspiro[3.3]heptan-1-one] | 25 to 1000
9 | O=C1[C@@H](C2CC2)[C@@H](c2c(F)cc(-c3ccc(C(F)(F)F)nn3)cc2F)N1c1ccc2[nH]cnc2c1 [Compound 52A] | 25 to 1000
10 | Cc1cc(-n2cnc(C(F)(F)F)c2)ncc1[C@@H]1[C@H](C2CC2)C(=O)N1c1ccc2[nH]cnc2c1 (single isomer, unassigned) [Compound 73A] | 25 to 1000
11 | Cc1cc([C@H]2[C@@H](C3CC3)C(=O)N2c2ccc3[nH]cnc3c2)ccc1-c1cnn(C(F)(F)F)c1 (single isomer, unassigned) [Compound 57B] | < 2
12 | O=C1[C@H](C2CC2)[C@H](c2c(F)cc(OCCC(F)F)cc2F)N1c1ccc2[nH]cnc2c1 (single isomer, unassigned) [Compound 18B] | < 2
13 | C[C@H]1C(=O)N(c2ccc3[nH]cnc3c2)[C@H]1c1c(F)cc(OCC(C)(C)O)cc1F (single isomer, unassigned) [Compound 32B] | < 2
14 | O=C1[C@H](C2CC2)[C@H](c2ccc(-c3cnn(C(F)(F)F)c3)cc2)N1c1ccc2[nH]cnc2c1 (single isomer, unassigned) [Compound 55B] | < 2
15 | Cc1cc(-c2ccc(C(F)(F)F)nn2)ccc1[C@H]1[C@@H](C2CC2)C(=O)N1c1ccc2[nH]cnc2c1 (single isomer, unassigned) [Compound 67B] | < 2
16 | Cc1ccc(-c2cc(F)c([C@H]3[C@@H](C4CC4)C(=O)N3c3ccc4[nH]cnc4c3)c(F)c2)nn1 (single isomer, unassigned) [Compound 65B] | < 2
17 | O=C1[C@@H](C2CC2)[C@@H](c2c(F)cc(-c3cnn(C(F)(F)F)c3)cc2F)N1c1ccc2[nH]cnc2c1 (single isomer, unassigned) [Compound 35A] | 25 to 1000
18 | CC[C@H]1C(=O)N(c2ccc3[nH]cnc3c2)[C@H]1c1c(F)cc(-c2cnn(C(F)(F)F)c2)cc1F (single isomer, unassigned) [Compound 51B] | < 2
19 | O=C1[C@H](C2CC2)[C@H](c2ccc(-c3cnn(C(F)(F)F)c3)cn2)N1c1ccc2[nH]cnc2c1 (single isomer, unassigned) [Compound 46B] | < 2
20 | C[C@H]1C(=O)N(c2ccc3[nH]cnc3c2)[C@H]1c1ccc(OCCC(F)F)nc1 (racemic) [Compound 23CR, (cis and racemic)-1-(1H-benzo[d]imidazol-5-yl)-4-(6-(3,3-difluoropropoxy)pyridin-3-yl)-3-methylazetidin-2-one] | 2 to 25
21 | Cc1cc(-n2cnc(C(F)(F)F)c2)ccc1[C@@H]1[C@H](C2CC2)C(=O)N1c1ccc2[nH]cnc2c1 (single isomer, unassigned) [Compound 74A] | 25 to 1000
22 | C[C@H]1C(=O)N(c2ccc3[nH]cnc3c2)[C@H]1c1c(F)cc(-c2cnn(C)c2)cc1F (single isomer, unassigned) [Compound 13B] | 2 to 25

Row | Structure (SMILES) | IC50 [nM]
23 | C[C@H]1C(=O)N(c2ccc3[nH]cnc3c2)[C@H]1c1c(F)cc(-n2cc(C(F)(F)F)cn2)cc1F (racemic) [Compound 28CR, (cis and racemic)-1-(1H-benzo[d]imidazol-5-yl)-4-(2,6-difluoro-4-(4-(trifluoromethyl)-1H-pyrazol-1-yl)phenyl)-3-methylazetidin-2-one] | 2 to 25
24 | O=C1[C@@H](O)[C@H](c2c(F)cc(OCCC(F)F)cc2F)N1c1ccc2[nH]cnc2c1 (racemic) [Compound 8TR, (trans and racemic)-1-(1H-benzo[d]imidazol-5-yl)-4-(4-(3,3-difluoropropoxy)-2,6-difluorophenyl)-3-hydroxyazetidin-2-one] | 25 to 1000
25 | O=C1[C@@H](C2CC2)[C@@H](c2c(F)cc(OCCC(F)F)cc2F)N1c1ccc2[nH]cnc2c1 (single isomer, unassigned) [Compound 18A] | > 1000
26 | O=C1[C@@H](O)[C@@H](c2c(F)cc(OCCC(F)F)cc2F)N1c1ccc2[nH]cnc2c1 (single isomer, unassigned) [Compound 8A] | > 1000
27 | Cc1noc(C)c1-c1cc(F)c([C@H]2[C@@H](C3CC3)C(=O)N2c2ccc3[nH]cnc3c2)c(F)c1 (single isomer, unassigned) [Compound 64B] | 2 to 25
28 | Cn1cc(-c2cc(F)c(C3CC(=O)N3c3ccc4[nH]cnc4c3)c(F)c2)cn1 (racemic) [Compound 9, 1-(1H-benzo[d]imidazol-5-yl)-4-(2,6-difluoro-4-(1-methyl-1H-pyrazol-4-yl)phenyl)azetidin-2-one] | 25 to 1000
29 | O=C1[C@H](C2CC2)[C@H](c2c(F)cc(C3CC3)cc2F)N1c1ccc2[nH]cnc2c1 (single isomer, unassigned) [Compound 69B] | < 2
30 | O=C1[C@@H](C2CC2)[C@@H](c2ccc(-c3cnn(C(F)(F)F)c3)cc2)N1c1ccc2[nH]cnc2c1 (single isomer, unassigned) [Compound 55A] | 25 to 1000
31 | O=C1[C@@H](C2CC2)[C@@H](c2ccc(-c3cnn(C(F)(F)F)c3)nc2)N1c1ccc2[nH]cnc2c1 (single isomer, unassigned) [Compound 43A] | 25 to 1000
32 | Cc1cc(-c2cnn(C(F)(F)F)c2)ncc1[C@H]1[C@@H](C2CC2)C(=O)N1c1ccc2[nH]cnc2c1 (single isomer, unassigned) [Compound 66B] | < 2
33 | O=C1[C@H](C2CC2)[C@H](c2ccc(OCCC(F)F)nc2)N1c1ccc2[nH]cnc2c1 (single isomer, unassigned) [Compound 45B] | < 2
34 | O=C1[C@H](C2COC2)[C@H](c2c(F)cc(-c3cnn(C(F)(F)F)c3)cc2F)N1c1ccc2[nH]cnc2c1 (single isomer, unassigned) [Compound 42B] | < 2
35 | O=C1[C@H](O)[C@H](c2c(F)cc(-c3cnn(C(F)(F)F)c3)cc2F)N1c1ccc2[nH]cnc2c1 (racemic) [Compound 16CR] | < 2
36 | Cc1cc(-c2cc(F)c([C@H]3[C@@H](C4CC4)C(=O)N3c3ccc4[nH]cnc4c3)c(F)c2)on1 (single isomer, unassigned) [Compound 62B] | < 2
37 | Cc1nc(-n2cnc(C(F)(F)F)c2)ccc1[C@@H]1[C@H](C2CC2)C(=O)N1c1ccc2[nH]cnc2c1 (single isomer, unassigned) [Compound 72A] | > 1000
38 | O=C1[C@H](C2CC2)[C@H](c2c(F)cc(-n3cc(C(F)(F)F)cn3)cc2F)N1c1ccc2[nH]cnc2c1 (single isomer, unassigned) [Compound 58B] | < 2
39 | O=C1[C@H](C2CC2)[C@H](c2ccc(-c3cnn(C(F)(F)F)c3)nc2)N1c1ccc2[nH]cnc2c1 (single isomer, unassigned) [Compound 43B] | < 2
40 | Cc1nc(-c2ccc(C(F)(F)F)nn2)ccc1[C@H]1[C@@H](C2CC2)C(=O)N1c1ccc2[nH]cnc2c1 (single isomer, unassigned) [Compound 70B] | < 2
41 | C[C@H]1C(=O)N(c2ccc3[nH]cnc3c2)[C@H]1c1c(F)cc(N2CCC(F)(F)C2)cc1F (racemic) [Compound 12CR, (cis and racemic)-1-(1H-benzo[d]imidazol-5-yl)-4-(4-(3,3-difluoropyrrolidin-1-yl)-2,6-difluorophenyl)-3-methylazetidin-2-one] | 2 to 25
42 | Cc1cc(-c2cnn(C(F)(F)F)c2)ccc1[C@H]1[C@@H](C2CC2)C(=O)N1c1ccc2[nH]cnc2c1 (single isomer, unassigned) [Compound 56B] | < 2
43 | Cc1oncc1-c1cc(F)c([C@H]2[C@@H](C3CC3)C(=O)N2c2ccc3[nH]cnc3c2)c(F)c1 (single isomer, unassigned) [Compound 63B] | < 2
44 | C[C@@H]1C(=O)N(c2ccc3[nH]cnc3c2)[C@H]1c1c(F)cc(OCCC(F)F)cc1F (single isomer, unassigned) [Compound 7A] | 25 to 1000
